{"source": "patent US20240165259A1", "about": "“BIOORTHOGONAL REACTION SUITABLE FOR CLICK/UNCLICK APPLICATIONS” (DANA-FARBER CANCER INSTITUTE, INC., priority 2021, published 2024)", "target": "T1, HaloTag protein (Rhodococcus rhodochrous, UniProt P0A3G2, A155T/A167V/A172T/A224E/C128F/C176G/D78G/E160K/E257K/H272N/K175M/K195N/L47V/L88M/N227D/S58T/T264A/Y273L/Y87F)", "T1 construct": "made in house; host or cells: E. coli (the text prints transformation into DH5a; BL21(DE3) was also purchased)", "T1 sequence (P0A3G2 other isoform, or with tags, fused parts or gaps with the stated changes)": "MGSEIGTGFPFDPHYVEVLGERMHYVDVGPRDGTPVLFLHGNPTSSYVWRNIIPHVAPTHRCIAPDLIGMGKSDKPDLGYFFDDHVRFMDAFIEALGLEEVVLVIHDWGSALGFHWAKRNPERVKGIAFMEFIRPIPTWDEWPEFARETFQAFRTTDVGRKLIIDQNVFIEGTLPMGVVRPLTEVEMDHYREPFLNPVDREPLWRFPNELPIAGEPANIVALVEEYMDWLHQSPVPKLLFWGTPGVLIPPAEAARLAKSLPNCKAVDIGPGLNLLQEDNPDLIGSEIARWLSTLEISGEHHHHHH", "experiment": "HaloTag protein labeling, in-gel fluorescence (time- and concentration-dependent)", "type": "biochemical", "conditions": "HaloTag protein conjugated to alkyne 21′, 200 μM 22′, room temperature", "protocol": "The viability of the reaction was evaluated both in vitro and in cells (FIG. 14A-FIG. 14B). Purified recombinant HaloTag protein (Los et al., ACS Chem. Biol. 3(6):373-382 (2008); Murrey et al., J. Am. Chem. Soc. 137(35):11461-11475 (2015)) was incubated with HaloTag linker-conjugated difluoropropargyl ether 21′ for 10 minutes at room temperature in pH 7.0 phosphate buffer to provide alkyne-conjugated protein. This protein was then treated with 200 μM TAMRA-N-methylhydroxylamine 22′ and analyzed at various time points by in-gel fluorescence.\nBuffer A: pH 7.0, 50 mM NaH2PO4, 20 mM NaCl\nA stock solution of HaloTag® protein (15.3 μL, 2.01 mg/mL in buffer A) was added to 29.7 μL of buffer A to prepare a HaloTag® working solution (solution A, 19.7 μM, 45 μL). […]\nA solution of alkyne 21′ in DMSO (700 μM) was added to reactions C (0.22 μL) and D (1.10 μL). […] In-gel fluorescence was imaged with a Typhoon™ FLA 9500 (GE) at 532 nm with a photomultiplier tube (PMT) setting of 500 V. The experiment was carried out in triplicate (FIG. 21A-FIG. 21B). […]\nA solution of alkyne 21′ in DMSO (700 μM) was added to reactions C (0.22 μL) and D (0.88 μL). […] In-gel fluorescence was imaged with a Typhoon™ FLA 9500 (GE) at 532 nm with a photomultiplier tube (PMT) setting of 500 V. The experiment was carried out in triplicate (FIG. 22A-FIG. 22B)."}
{"smiles": "CN(O)CCOCCNC(=O)c1ccc2c(c1)C1(OC2=O)c2ccc(N(C)C)cc2Oc2cc(N(C)C)ccc21", "note": "[compound 13, 3′,6′-bis(dimethylamino)-N-(2-(2-(hydroxy(methyl)amino)ethoxy)ethyl)-3-oxo-3H-spiro[isobenzofuran-1,9′-xanthene]-6-carboxamide]", "values": [{"measurement": "time at which fluorophore-labeled protein was observed", "result": "≤ 1", "unit": "min"}]}
